From US6514946B1, “Macrolide antibiotics and treatment and prophylaxis of pasteurellosis using the same” (Zaidan Hojin Biseibutsu Kagaku Kenkyu Kai, priority 1999, dated 2003)
Converted amounts (≈) assume the structure as drawn.

Tests used:
[1] = tested on: S. aureus Smith (virulent strain); assay: microbe, parasite or virus in culture; assay type: cell-based, Staphylococcus aureus; details: S. aureus Smith (virulent strain); Mueller hinton agar
Protocol: (§1) Test 1; Minimum Inhibition Concentration (MIC)
(§2) MIC was measured, based on the standard method of Japan Society of Chemotherapy, on a BHI agar medium (Brain heart-infusion agar, made by Difco Laboratories Inc.(USA)) with respect to Pasteurella and on a Mueller hinton agar medium (Mueller hinton agar, made by Difco, Laboratories Inc.(USA)) with respect to the other test bacteria in both cases according to the double dilution method.

[2] = tested on: Bacillus subtilis NRRL B-558; assay: Minimum inhibition concentration (MIC), agar double dilution method; assay type: cell-based; details: Bacillus subtilis NRRL B-558; Mueller hinton agar
Protocol: as §1, §2

[3] = tested on: Enterobacter aerogenes ATCC13048; assay: as above; assay type: cell-based; details: Mueller hinton agar
Protocol: as §1, §2

[4] = tested on: Klebsiella pneumoniae PCI602; assay: as above; assay type: cell-based; details: Mueller hinton agar
Protocol: as §1, §2

[5] = tested on: Micrococcus luteus PCI1001; assay: as above; assay type: cell-based; details: Mueller hinton agar
Protocol: as §1, §2

[6] = tested on: Pasteurella haemolytica BBPO101 N791; assay: as above; assay type: cell-based; details: Pasteurella haemolytica BBPO101 N791, strain from cattle; BHI agar
Protocol: as §1, §2

Proteus vulgaris OX19 = assay: as above; assay type: cell-based; details: Mueller hinton agar
Protocol: as §1, §2

[7] = tested on: Salmonella enteritidis 1891; assay: as above; assay type: cell-based; details: Mueller hinton agar
Protocol: as §1, §2

Serratia marcescens = assay: as above; assay type: cell-based; details: Mueller hinton agar
Protocol: as §1, §2

[8] = tested on: Shigella dysenteriae JS11910; assay: as above; assay type: cell-based; details: Shigella dysenteriae JS11910; Mueller hinton agar
Protocol: as §1, §2

E. coli K-12 R-5 = assay: as above; assay type: cell-based, Escherichia coli; details: Mueller hinton agar
Protocol: as §1, §2

[9] = tested on: Past haemolytica BBPO102 N811; assay: as above; assay type: cell-based, Pasteurella haemolytica; details: Past haemolytica BBPO102 N811, strain from cattle; BHI agar
Protocol: as §1, §2

[10] = tested on: Past. multocida BOPO305 M-17; assay: as above; assay type: cell-based, Pasteurella multocida; details: Past. multocida BOPO305 M-17, strain from a sheep; BHI agar
Protocol: as §1, §2

[11] = tested on: Past. multocida BSPO302 No. 6; assay: as above; assay type: cell-based, Pasteurella multocida; details: Past. multocida BSPO302 No. 6, strain from a pig; BHI agar
Protocol: as §1, §2

ICR mice = assay: Toxicity test, intravenous or subcutaneous injection; assay type: in vivo
S. aureus FDA209P = assay: Minimum inhibition concentration (MIC), agar double dilution method; assay type: cell-based, Staphylococcus aureus; details: Mueller hinton agar
Protocol: as §1, §2

Escherichia coli NIHJ = assay: as above; assay type: cell-based; details: Mueller hinton agar
Protocol: as §1, §2

[12] = tested on: Staphylococcus aureus 193; assay: as above; assay type: cell-based; details: Mueller hinton agar
Protocol: as §1, §2

[13] = tested on: Past haemolytica BAPO103 S801; assay: as above; assay type: cell-based, Pasteurella haemolytica; details: Past haemolytica BAPO103 S801, strain from poultry; BHI agar
Protocol: as §1, §2

[14] = intravenous injection, 0.25 mg/mouse
[15] = intravenous injection, 0.5 mg/mouse
[16] = intravenous injection, 1.5 mg/mouse
[17] = intravenous injection, 2.0 mg/mouse
[18] = subcutaneous injection, 1.0 mg/mouse
[19] = subcutaneous injection, 2.0 mg/mouse
[20] = subcutaneous injection, 3.0 mg/mouse
[21] = subcutaneous injection, 4.0 mg/mouse

SMILES | MIC [1] [µg/mL] | MIC [2] [µg/mL] | MIC [3] [µg/mL] | MIC [4] [µg/mL] | MIC [5] [µg/mL] | MIC [6] [µg/mL] | MIC (Proteus vulgaris OX19) [µg/mL] | MIC [7] [µg/mL] | MIC (Serratia marcescens) [µg/mL] | MIC [8] [µg/mL] | MIC (E. coli K-12 R-5) [µg/mL] | MIC [9] [µg/mL] | MIC [10] [µg/mL] | MIC [11] [µg/mL] | MIC (S. aureus FDA209P) [µg/mL] | MIC (Escherichia coli NIHJ) [µg/mL] | MIC [12] [µg/mL] | MIC [13] [µg/mL] | further results
CC[C@H]1OC(=O)C[C@@H](O)[C@H](C)[C@@H](O[C@@H]2O[C@H](C)C(O)C(N(C)C)C2O)[C@@H](CCN2CCCCCC2)C[C@@H](C)C(=O)/C=C/C(C)=C/[C@@H]1CN1CCCCCC1 (some centres unmarked) [Compound C-7] | 3.13 (≈ 4.11 µM) | 6.25 (≈ 8.2 µM) | 3.13 (≈ 4.11 µM) | 0.78 (≈ 1.02 µM) | 0.20 (≈ 0.262 µM) | 0.20 (≈ 0.262 µM) | 3.13 (≈ 4.11 µM) | 0.78 (≈ 1.02 µM) | 12.5 (≈ 16.4 µM) | 1.56 (≈ 2.05 µM) | 25 (≈ 32.8 µM) | 0.20 (≈ 0.262 µM) | 0.10 (≈ 0.131 µM) | 0.39 (≈ 0.512 µM) | – | – | – | – | Dissection finding (ICR mice; [14]): no abnormal finding; Surviving number (ICR mice; [14]): 2/2; Dissection finding (ICR mice; [15]): no abnormal finding; Surviving number (ICR mice; [15]): 1/2 (immediate death); Dissection finding (ICR mice; [16]): no abnormal finding; Surviving number (ICR mice; [16]): 0/2 (immediate death); Dissection finding (ICR mice; [17]): no abnormal finding; Surviving number (ICR mice; [17]): 0/2 (immediate death); Dissection finding (ICR mice; [18]): no abnormal finding; Surviving number / number of used animals (ICR mice; [18]): 2/2; Dissection finding (ICR mice; [19]): no abnormal finding; Surviving number / number of used animals (ICR mice; [19]): 2/2; Dissection finding (ICR mice; [20]): a little decoloring in kidney; Surviving number / number of used animals (ICR mice; [20]): 2/2; Dissection finding (ICR mice; [21]): no abnormal finding; Surviving number / number of used animals (ICR mice; [21]): 0/1 (died after 30 minutes)
CC[C@H]1OC(=O)C[C@@H](O)[C@H](C)[C@@H](O[C@@H]2O[C@H](C)C(O)C(N(C)C)C2O)[C@@H](CCN(C)C2CCCCC2)C[C@@H](C)C(=O)/C=C/C(C)=C/[C@@H]1CN(C)C1CCCCC1 (some centres unmarked) [Compound C-3] | 3.13 (≈ 3.96 µM) | 3.13 (≈ 3.96 µM) | 12.5 (≈ 15.8 µM) | 3.13 (≈ 3.96 µM) | 0.78 (≈ 0.987 µM) | 0.39 (≈ 0.494 µM) | 12.5 (≈ 15.8 µM) | 1.56 (≈ 1.97 µM) | 50 (≈ 63.3 µM) | 6.25 (≈ 7.91 µM) | – | 0.78 (≈ 0.987 µM) | 1.56 (≈ 1.97 µM) | 1.56 (≈ 1.97 µM) | 1.56 (≈ 1.97 µM) | 3.13 (≈ 3.96 µM) | 1.56 (≈ 1.97 µM) | – | –
CC[C@H]1OC(=O)C[C@@H](O)[C@H](C)[C@@H](O[C@@H]2O[C@H](C)C(O)C(N(C)C)C2O)[C@@H](CCN2CCCC2)C[C@@H](C)C(=O)/C=C/C(C)=C/[C@@H]1CN1CCCC1 (some centres unmarked) [Compound C-6] | 25 (≈ 35.4 µM) | 50 (≈ 70.8 µM) | 50 (≈ 70.8 µM) | – | 1.56 (≈ 2.21 µM) | 1.56 (≈ 2.21 µM) | – | 3.13 (≈ 4.43 µM) | 100 (≈ 142 µM) | 12.5 (≈ 17.7 µM) | >100 | 1.56 (≈ 2.21 µM) | 3.13 (≈ 4.43 µM) | 6.25 (≈ 8.85 µM) | – | 6.25 (≈ 8.85 µM) | 25 (≈ 35.4 µM) | 25 (≈ 35.4 µM) | –
CC[C@H]1OC(=O)C[C@@H](O)[C@H](C)[C@@H](O[C@@H]2O[C@H](C)C(O)C(N(C)C)C2O)[C@@H](CCN2CCC(C)CC2)C[C@@H](C)C(=O)/C=C/C(C)=C/[C@@H]1CN1CCC(C)CC1 (some centres unmarked) [MP-MT] | – | 25 (≈ 32.8 µM) | 12.5 (≈ 16.4 µM) | 3.13 (≈ 4.11 µM) | 0.78 (≈ 1.02 µM) | 0.39 (≈ 0.512 µM) | 12.5 (≈ 16.4 µM) | 3.13 (≈ 4.11 µM) | 50 (≈ 65.6 µM) | 6.25 (≈ 8.2 µM) | >100 | 0.39 (≈ 0.512 µM) | 0.39 (≈ 0.512 µM) | 0.39 (≈ 0.512 µM) | 1.56 (≈ 2.05 µM) | – | 1.56 (≈ 2.05 µM) | 3.13 (≈ 4.11 µM) | –
